Reference: PubChem BioAssay (NCI)
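Each compound was tested at five concentrations against cells in 96-well plates for 48 hours. TGI: total growth inhibition.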

Key:
Assay in all cases: NCI-60 cell line screen, 48 h
[1] = tested on: 786-0 renal
[2] = tested on: A498 renal
[3] = tested on: A549 NSCLC
[4] = tested on: ACHN renal
[5] = tested on: BT-549 breast
[6] = tested on: CCRF-CEM leukemia
[7] = tested on: COLO 205 colon
[8] = tested on: DU-145 prostate
[9] = tested on: EKVX NSCLC
[10] = tested on: HCT-116 colon
[11] = tested on: HCT-15 colon
[12] = tested on: HL-60(TB) leukemia
[13] = tested on: HOP-62 NSCLC
[14] = tested on: HOP-92 NSCLC
[15] = tested on: HS 578T breast
[16] = tested on: HT29 colon
[17] = tested on: IGROV1 ovarian
[18] = tested on: K-562 leukemia
[19] = tested on: KM12 colon
[20] = tested on: LOX IMVI melanoma
[21] = tested on: M14 melanoma
[22] = tested on: MALME-3M melanoma
[23] = tested on: MCF7 breast
[24] = tested on: MDA-MB-231 breast
[25] = tested on: MDA-MB-435
[26] = tested on: MDA-N
[27] = tested on: MOLT-4 leukemia
[28] = tested on: NCI-H226 lung
[29] = tested on: NCI-H23 lung
[30] = tested on: NCI-H460 lung
[31] = tested on: NCI/ADR-RES ovarian
[32] = tested on: OVCAR-3 ovarian
[33] = tested on: OVCAR-4 ovarian
[34] = tested on: OVCAR-5 ovarian
[35] = tested on: PC-3 prostate
[36] = tested on: RPMI-8226 leukemia
[37] = tested on: RXF 393 renal
[38] = tested on: SF-268 CNS
[39] = tested on: SF-539 CNS
[40] = tested on: SK-MEL-2 melanoma
[41] = tested on: SK-MEL-28 melanoma
[42] = tested on: SK-MEL-5 melanoma
[43] = tested on: SK-OV-3 ovarian
[44] = tested on: SN12C renal
[45] = tested on: SNB-19 CNS
[46] = tested on: SNB-75 CNS
[47] = tested on: SR leukemia
[48] = tested on: SW-620 colon
[49] = tested on: T-47D breast
[50] = tested on: TK-10 renal
[51] = tested on: U251 CNS
[52] = tested on: UACC-257 melanoma
[53] = tested on: UACC-62 melanoma
[54] = tested on: UO-31 renal
[55] = tested on: CAKI-1 renal
[56] = tested on: HCC-2998 colon
[57] = tested on: NCI-H522 lung
[58] = tested on: OVCAR-8 ovarian
[59] = tested on: SF-295 CNS

Nc1nc(Nc2ccccc2)sc1C(=O)c1ccco1
TGI [1]: 31.7 µM | TGI [2]: 39.6 µM | TGI [3]: 43.2 µM | TGI [4]: 62.2 µM | TGI [5]: 54.3 µM | TGI [6]: 17.1 µM | TGI [7]: 27.8 µM | TGI [8]: 40.8 µM | TGI [9]: 38.7 µM | TGI [10]: 36.7 µM | TGI [11]: 50.9 µM | TGI [12]: 36.1 µM | TGI [13]: 67.8 µM | TGI [14]: 82.6 µM | TGI [15]: 40.8 µM | TGI [16]: 41.9 µM | TGI [17]: 60.7 µM | TGI [18]: 57.7 µM | TGI [19]: 23.5 µM | TGI [20]: 42.8 µM | TGI [21]: 36.9 µM | TGI [22]: 57.1 µM | TGI [23]: 26.3 µM | TGI [24]: 97.7 µM | TGI [25]: 31.5 µM | TGI [26]: 33.9 µM | TGI [27]: 35.7 µM | TGI [28]: 55.3 µM | TGI [29]: 35.9 µM | TGI [30]: 28 µM | TGI [31]: 65.5 µM | TGI [32]: 31.5 µM | TGI [33]: 50.5 µM | TGI [34]: 71.5 µM | TGI [35]: > 100 µM | TGI [36]: 42.2 µM | TGI [37]: 30.8 µM | TGI [38]: > 100 µM | TGI [39]: 33.3 µM | TGI [40]: 36.7 µM | TGI [41]: 67.1 µM | TGI [42]: 23.2 µM | TGI [43]: 93.6 µM | TGI [44]: 39.5 µM | TGI [45]: 50.9 µM | TGI [46]: 37.7 µM | TGI [47]: 25.2 µM | TGI [48]: 67.4 µM | TGI [49]: 41.4 µM | TGI [50]: 35.9 µM | TGI [51]: > 100 µM | TGI [52]: 68.9 µM | TGI [53]: 40.1 µM | TGI [54]: 30.2 µM

CCOC(=O)c1ccc(Nc2nc3ccc(C(F)(F)F)cc3nc2C(=O)OCC)cc1
TGI [1]: > 100 µM | TGI [2]: > 100 µM | TGI [3]: > 100 µM | TGI [4]: > 100 µM | TGI [5]: > 100 µM | TGI [55]: > 100 µM | TGI [6]: > 100 µM | TGI [7]: > 100 µM | TGI [8]: > 100 µM | TGI [9]: > 100 µM | TGI [56]: > 100 µM | TGI [10]: > 100 µM | TGI [11]: > 100 µM | TGI [12]: > 100 µM | TGI [13]: > 100 µM | TGI [14]: > 100 µM | TGI [15]: > 100 µM | TGI [16]: > 100 µM | TGI [17]: > 100 µM | TGI [18]: > 100 µM | TGI [19]: > 100 µM | TGI [20]: > 100 µM | TGI [21]: > 100 µM | TGI [22]: > 100 µM | TGI [23]: > 100 µM | TGI [24]: > 100 µM | TGI [25]: > 100 µM | TGI [26]: > 100 µM | TGI [27]: > 100 µM | TGI [28]: > 100 µM | TGI [29]: > 100 µM | TGI [30]: > 100 µM | TGI [57]: > 100 µM | TGI [31]: > 100 µM | TGI [32]: > 100 µM | TGI [34]: > 100 µM | TGI [58]: > 100 µM | TGI [35]: > 100 µM | TGI [36]: > 100 µM | TGI [37]: > 100 µM | TGI [38]: > 100 µM | TGI [59]: > 100 µM | TGI [39]: > 100 µM | TGI [41]: > 100 µM | TGI [42]: > 100 µM | TGI [43]: > 100 µM | TGI [44]: > 100 µM | TGI [45]: > 100 µM | TGI [46]: > 100 µM | TGI [47]: > 100 µM | TGI [48]: > 100 µM | TGI [49]: > 100 µM | TGI [50]: > 100 µM | TGI [51]: > 100 µM | TGI [52]: > 100 µM | TGI [53]: > 100 µM | TGI [54]: > 100 µM
